Molecules are shown by their SMILES.

For series [1], the system named is wet-age-related macular degeneration (CNV). As to the kind of experiment: CNV animal model of wet age-related macular degeneration. Type of series: in vivo, mice. The conditions noted are these: intravitreal (IVT); laser CNV model; FIG. 5. Here is the method: In this example, the efficacy of the compounds of the present disclosure was tested on wet-age-related macular degeneration in a CNV animal model.
Male mice were administered 0.5% probacaine hydrochloride (Alcon) for local anesthesia, and 1% tropicamide to dilate the pupils of the mice. Laser cauterization was performed using a laser photocoagulator (Novus Varia, LUMENIS) with a slit lamp delivery system. And artificially torn adherent glass coverslips were used as contact lenses. Bleeding spots caused by laser were not included in the statistical data.

The subject of another series is hepatic fibrosis. Description: CCl4 mouse model of hepatic fibrosis. Type of series: in vivo, mice. The settings on record: intraperitoneal (IP) injection twice a week from third week of modelling; FIG. 9. Here is the method: In this example, the efficacy of the compounds of the present disclosure was tested on hepatic fibrosis in an animal model of hepatic fibrosis. Briefly, C57BL/6N mice, male, 7 to 8 weeks old, 24 to 28 g of body weight, were used. The mouse model of hepatic fibrosis was induced by intraperitoneal injection of CCl4 solution at a dosage of 1 mL/kg, with a dosing frequency of 2 times/week, and a modelling cycle of 6 weeks. Dosing via intraperitoneal injection was started from the third week of modelling twice a week. At the end of the test, serum was collected, and liver tissue was taken for Masson staining index assay.

The test system of another series is hypertrophic scars. Description: Rabbit ear hypertrophic scar model. The series is classed as in vivo, New Zealand white rabbits. The settings on record: 150 μM, 100 μL injected into lesion once a week, 4 injections, from postoperative Day 14; FIG. 12. As to the method:
In this example, the efficacy of the compounds of the present disclosure was tested on hypertrophic scars in a rabbit ear hypertrophic scar animal model. Briefly, 10 New Zealand white rabbits, male, 3 months old, were used. The New Zealand rabbits were anaesthetized with sodium pentobarbital and six circular full-thickness wounds with a diameter of 10 mm were made on the ventral surface of each ear by removing the epidermis, dermis and perichondrium to expose the cartilage. The rabbits were randomly divided into control and RZ001 experimental groups. On postoperative Day 14, after complete re-epithelialization of the wound surface, the compound (150 μM, 100 μL, dissolved in DMSO solution) or negative control DMSO 100 μL was injected into the center of each lesion from the wound edge once a week for a total of 4 injections. Improvement of scar formation by the compound was assessed by SEI (Scar Excess Index).

The subject of series [2] is normal A549 cells, IMR90 cells, RPE cells, mouse chondrocytes, mouse skin fibroblasts. As to the kind of experiment: Cell viability of normal cells (CellTiter-Glo). The conditions noted are these: 1 μM, 72 hours, FIGS. 2A to 2E. Type of series: cell-based, human. As to the method: (§1) In this example, human non-small cell lung cancer cell line (A549 cells), human embryonic lung fibroblast cell line (IMR90 cells), human retinal pigment epithelial cells (RPE cells), mouse chondrocytes, and mouse skin fibroblasts were selected. The cells above were induced to obtain senescent cells by etoposide (10 μM). The effect of the target compounds RZ001-RZ006 and RZ201 on the viability of normal and senescent cells above was detected, thereby evaluating the specific killing effect of the prodrugs RZ001-RZ006 and RZ201 on senescent cells above.
(§2) Briefly, senescent and normal cells above were selected and plated separately (96-well plates). After adding the compounds RZ001-RZ006 and RZ201 (concentration: 1 μM) for 72 hours, CellTiter-Glo® Luminescent Cell Viability Assay Kit (Promega) was used to detect cell viability, and the results were shown in FIGS. 2A to 2E.
In general terms: Cellular ATP, detected with luciferase, serves as a proxy for viable cell number.

Series [3] relates to senescent A549 cells, IMR90 cells, RPE cells, mouse chondrocytes, mouse skin fibroblasts. Description: Cell viability of senescent cells (CellTiter-Glo). Type of series: cell-based, human. The conditions noted are these: 1 μM, 72 hours; etoposide (10 μM)-induced senescent cells; FIGS. 2A to 2E. Here is the method: as §1, §2
The test system of series [4] is oxygen-induced retinopathy (OIR). Description: Mouse model of oxygen-induced retinopathy (OIR). The series is classed as in vivo. The conditions noted are these: intravitreal (IVT), 1 μl of 200 μM at P12, retinas at P17, IB4 staining; FIG. 3. Here is the method: The efficacy of the prodrugs RZ001-RZ006 as well as RZ201 were investigated in a mouse model of oxygen-induced retinopathy (OIR) which to some extent indicates an in vivo model of retinopathy of prematurity (ROP), diabetic retinopathy, and wet age-related macular degeneration. From postnatal Day 7 (P7) to Day 12 (P12), C57Bl/6 mouse pups and their CD1 foster mothers were exposed to hyperoxia (75% O2). At P12, the animals were injected intravitreally with 1 μl of the test composition formulated in 1% DMSO, 10% Tween 80, and 20% PEG-400 (200 μM the compound) and returned to room air until Day 17 (P17). On P17, the eyeballs were enucleated and the retinas were dissected for vascular staining. To determine the area of avascularity or angiogenesis, the retinas were flattened and stained with isolectin B4 (IB4).

For the compound `Cc1c(-c2ccc(N3CCc4cccc(C(=O)Nc5nc6ccccc6s5)c4C3)nc2C(=O)OCOC(=O)C(C)C)cnn1CC12CC3CC(CC(C3)C1)C2` [RZ001], the fluorescence intensity indicators result in series [1] is “statistically significant improvements”. Also, in the series on hepatic fibrosis, the “pathology scores (liver, Masson staining)” value is reported as “statistically significant improvements”; the “serum alanine aminotransferase (ALT) levels” value is given as “statistically significant improvements”; the “serum aspartate aminotransferase (AST) levels” value was “statistically significant improvements”. The “scar excess index (SEI)” value with hypertrophic scars was “statistically significant improvement”.

As for `Cc1oc(=O)oc1COC(=O)c1nc(N2CCc3cccc(C(=O)Nc4nc5ccccc5s4)c3C2)ccc1-c1cnn(CC23CC4CC(CC(C4)C2)C3)c1C` [RZ201], the fluorescence intensity indicators result in series [1] is listed as “statistically significant improvements”. Further, in series [2], the “cytotoxicity against normal cells (cell viability)” value is on record as “without significant killing effects on normal cells”. Besides, the “cytotoxicity against senescent cells (cell viability)” value in series [3] is recorded as “cytotoxicity primarily against senescent cells”. Further, in series [4], the angiogenesis result is “statistically significant improvements” and the avascular zone entry is given as “statistically significant improvements”. In addition, in the series with hepatic fibrosis, the “pathology scores (liver, Masson staining)” value is given as “statistically significant improvements”; the “serum alanine aminotransferase (ALT) levels” value was “statistically significant improvements”; the “serum aspartate aminotransferase (AST) levels” value is given as “statistically significant improvements”.

These data come from patent publication US20250376466A1, “ESTER COMPOUNDS AND USE THEREOF” (NANJING REJU THERAPEUTICS, CO., LTD., priority 2022, published 2025).
